Assay results as given in BindingDB's records for doi:10.1016/j.ejmech.2014.11.002 (Universitat Rovira I Virgili, 2015).

Tests used:
[1] = molecular target: Cytosolic beta-glucosidase (Bos taurus); test: Inhibition of bovine liver beta-glucosidase at pH 5.5 incubated for 10 to 30 mins using beta-D-glycopyranoside substrate by spectrophotometry
[2] = molecular target: Cytosolic beta-glucosidase (Bos taurus); test: Inhibition of bovine liver beta-glucosidase at pH 7.3 incubated for 10 to 30 mins using beta-D-glycopyranoside substrate by spectrophotometry

OC[C@H]1O[C@@H]2N=C(SCCCCCCCCCCCCCCCCF)O[C@@H]2[C@@H](O)[C@@H]1O
Ki [1]: 66 µM | Ki [2]: 11.1 µM

COC(=O)CCCCCCCCCCCCCCCSC1=N[C@H]2O[C@H](CO)[C@@H](O)[C@H](O)[C@H]2O1
Ki [1]: 45 µM | Ki [2]: 26.4 µM
